# Data published in paper PMC9658295, “The RSL3 Induction of KLK Lung Adenocarcinoma Cell Ferroptosis by Inhibition of USP11 Activity and the NRF2-GSH Axis” (Cancers, 2022).
# pKd: −log10 of the molar value.
# Columns and labels:
# [1] = biological target: T1, USP11 (Homo sapiens, UniProt P51784, Q402E/Y833E); test: bio-layer interferometry (Octet), biotinylated protein on SSA sensors, […] global fit; assay type: binding
# T1 construct: biotin-labelled for BLI
# [2] = biological target: T2, USP11 (Homo sapiens, UniProt P51784); test: as above; assay type: binding; details: PBS-T, 30 °C; RSL3 6.81-218 μM; unreliable (KD above the highest concentration tested); protein refolded from 8 M urea
# T2 construct: biotin-labelled for BLI
# T2 sequence (P51784 whole entry): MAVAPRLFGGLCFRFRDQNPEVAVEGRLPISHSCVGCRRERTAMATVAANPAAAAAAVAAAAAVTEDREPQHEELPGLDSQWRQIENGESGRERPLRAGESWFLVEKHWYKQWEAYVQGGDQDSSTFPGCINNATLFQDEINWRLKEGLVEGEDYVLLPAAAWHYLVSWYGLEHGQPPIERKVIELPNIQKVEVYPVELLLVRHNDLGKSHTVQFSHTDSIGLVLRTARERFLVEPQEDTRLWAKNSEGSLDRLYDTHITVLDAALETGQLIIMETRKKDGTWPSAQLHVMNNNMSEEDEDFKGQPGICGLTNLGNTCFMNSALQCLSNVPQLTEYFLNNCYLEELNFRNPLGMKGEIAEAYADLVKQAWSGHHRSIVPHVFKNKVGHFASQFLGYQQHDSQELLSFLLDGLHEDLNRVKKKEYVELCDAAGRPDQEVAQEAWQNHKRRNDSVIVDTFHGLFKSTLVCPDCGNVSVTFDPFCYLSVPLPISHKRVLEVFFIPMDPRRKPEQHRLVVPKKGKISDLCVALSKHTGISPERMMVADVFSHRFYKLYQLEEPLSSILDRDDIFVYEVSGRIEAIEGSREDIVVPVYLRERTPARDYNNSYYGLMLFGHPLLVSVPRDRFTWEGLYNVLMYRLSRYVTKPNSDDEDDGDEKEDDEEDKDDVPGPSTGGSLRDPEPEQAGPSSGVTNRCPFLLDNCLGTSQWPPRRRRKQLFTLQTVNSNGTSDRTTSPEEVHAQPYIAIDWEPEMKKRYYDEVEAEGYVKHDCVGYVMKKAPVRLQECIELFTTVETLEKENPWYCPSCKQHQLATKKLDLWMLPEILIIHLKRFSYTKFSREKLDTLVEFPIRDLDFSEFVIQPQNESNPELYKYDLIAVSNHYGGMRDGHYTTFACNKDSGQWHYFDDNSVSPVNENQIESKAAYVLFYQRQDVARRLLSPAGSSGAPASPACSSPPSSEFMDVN
# T1 sequence (P51784 whole entry Q402E/Y833E): as the sequence (P51784 whole entry) above, with Q402E, Y833E counted along it
smiles,measurement,setting,value
COC(=O)c1ccc([C@H]2c3[nH]c4ccccc4c3C[C@H](C(=O)OC)N2C(=O)CCl)cc1 [RSL3],pKd,[1],3.72
same,KD,[2],340 µM
